The source of these data is patent US5328909A, “Cyclopropenone derivatives” (Mitsubishi Kasei Corporation, priority 1991, dated 1994).

For this assay, the target named is T1, m-calpain (Rattus norvegicus, UniProt Q07009).
T1 construct: m-calpain was purified from rat brain; from tissue; host or cells: rat brain
T1 sequence (Q07009 20-700 limits assumed): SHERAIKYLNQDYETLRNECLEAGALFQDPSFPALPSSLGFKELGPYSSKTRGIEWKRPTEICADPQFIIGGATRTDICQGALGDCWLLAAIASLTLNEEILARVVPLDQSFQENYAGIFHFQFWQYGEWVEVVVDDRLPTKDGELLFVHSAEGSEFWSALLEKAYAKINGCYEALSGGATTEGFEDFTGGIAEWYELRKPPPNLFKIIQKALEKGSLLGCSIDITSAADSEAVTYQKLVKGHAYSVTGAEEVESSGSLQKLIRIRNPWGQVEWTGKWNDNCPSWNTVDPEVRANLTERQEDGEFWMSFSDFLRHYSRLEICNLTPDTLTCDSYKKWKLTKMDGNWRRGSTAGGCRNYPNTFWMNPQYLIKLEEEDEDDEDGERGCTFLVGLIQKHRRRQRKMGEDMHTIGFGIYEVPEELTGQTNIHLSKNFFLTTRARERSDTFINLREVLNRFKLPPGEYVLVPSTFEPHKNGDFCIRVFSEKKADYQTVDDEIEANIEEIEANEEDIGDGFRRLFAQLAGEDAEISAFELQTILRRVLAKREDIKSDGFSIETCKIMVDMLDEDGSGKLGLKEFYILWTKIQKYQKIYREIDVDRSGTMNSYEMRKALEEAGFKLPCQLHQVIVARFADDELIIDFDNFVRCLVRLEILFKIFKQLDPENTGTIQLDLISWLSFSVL
T1 sequence (Q64537 1-270 partner): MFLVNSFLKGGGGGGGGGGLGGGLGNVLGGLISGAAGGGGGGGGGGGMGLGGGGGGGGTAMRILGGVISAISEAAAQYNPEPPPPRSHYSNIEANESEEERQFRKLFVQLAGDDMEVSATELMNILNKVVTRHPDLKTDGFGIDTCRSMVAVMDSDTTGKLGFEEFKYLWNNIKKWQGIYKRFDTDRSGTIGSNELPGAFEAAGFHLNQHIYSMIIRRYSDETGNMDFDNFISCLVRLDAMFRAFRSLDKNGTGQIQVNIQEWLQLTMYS
In words: Thiol protease inhibitory activity against m-calpain purified from rat brain. It is filed as biochemical. As to conditions: Table 4; rat brain enzyme; read-out: Inhibitory activity against m-calpain IC50. The method, then: Inhibitory activity against papain (P-3125, Sigma) and cathepsin B (C-6286, Sigma) was assayed according to the method described in a literature [Biochemical Journal, 201, 189 (1982)]. Capthesin L was purified from rat kidney according to the method in a literature [Journal of Biochemistry, 100, 35 (1986)], and the inhibitory activity against it was assayed in the same manner as described in the above literature for cathepsin B. Further, m-calpain was purified from rat brain according to a known method [Journal of Biological Chemistry, 254, p.3210 (1984)] and the inhibitory activity against it was assayed by a method described in a literature [Journal of Biological Chemistry, 259, 12489 (1984)]. The results are showing in Tables 3 and 4. It is evident from Tables 3 and 4 that the compounds in the present invention have a potent inhibitory activity against thiol proteases such as papain, cathepsin B, cathepsin L, m-calpain or the like.
Usually IC50 stands for the concentration at which inhibition is half-maximal. Turning to `COc1ccc(S(=O)(=O)N[C@@H](CC(C)C)C(=O)N[C@@H](C(C)C)[C@@H](O)c2c(-c3ccccc3)c2=O)cc1` [87 (No. 257), 2-[(1S, 2S)-1-hydroxy-2-{(S)-2-(4-methoxyphenylsulfonylamino)-4-methylvalerylamino}-3-methylbutyl]-3-phenylcyclopropenone], the IC50 came to 1000 nM.
The figure for `CC(C)C[C@H](NS(=O)(=O)c1cccc2ccccc12)C(=O)N[C@@H](C(C)C)[C@@H](O)c1c(-c2ccccc2)c1=O` [88 (No. 259), 2-[(1S, 2S)-1-hydroxy-3-methyl-2-{(S)-4-methyl-2-(1-naphtylsulfonylamino)valerylamino}butyl]-3-phenylcyclopropenone] is 650 nM.
For the compound `CC(C)C[C@H](NS(=O)(=O)c1ccc2ccccc2c1)C(=O)N[C@@H](C(C)C)[C@@H](O)c1c(-c2ccccc2)c1=O` [89 (No. 260), 2-[(1S, 2S)-1-hydroxy-3-methyl-2-{(S)-4-methyl-2-(2-naphtylsulfonylamino)valerylamino}butyl]-3-phenylcyclopropenone], the IC50 is 460 nM.
For the compound `CC(C)C[C@H](NS(=O)(=O)c1cccc2cccnc12)C(=O)N[C@@H](C(C)C)[C@@H](O)c1c(-c2ccccc2)c1=O` [91 (No. 265), 2-[(1S, 2S)-1-hydroxy-3-methyl-2-{(S)-4-methyl-2-(8-quinolylsulfonylamino)valerylamino}butyl]-3-phenylcyclopropenone], the IC50 was found to be 1900 nM.
The figure for `CC(C)C[C@H](NC(=O)OCC1CCCCC1)C(=O)N[C@@H](C(C)C)[C@@H](O)c1c(-c2ccc(F)cc2)c1=O` [105 (No. 311), 2-[(1S, 2S)-2-((S)-2-cyclohexylmethoxycarbonylamino-4-methylvalerylamino)-1-hydroxy-3-methylbutyl]-3-(4-fluorophenyl)cyclopropenone] is 1500 nM.
The figure for `CC(C)C[C@H](NS(=O)(=O)c1ccccc1)C(=O)N[C@@H](C(C)C)[C@@H](O)c1c(-c2ccc(F)cc2)c1=O` [111 (No. 317), 2-(4-fluorophenyl)-3-[(1S, 2S)-1-hydroxy-3-methyl-2-((S)-4-methyl-2-phenylsulfonylaminovalerylamino)butyl]cyclopropenone] is 2900 nM; for `CCCC[C@H](NC(=O)[C@H](CC(C)C)NC(=O)OCc1ccccc1)C(O)c1c(-c2ccc(F)cc2)c1=O` (stereo partly drawn) [112 (No. 319), 2[(2S)-2-((S)-2-benzyloxycarbonylamino-4-methylvalerylamino)-1-hydroxyhexyl]-3-(4-fluorophenyl)cyclopropenone] it is 4300 nM.
For the compound `CC(C)C[C@H](NC(=O)OCC1CCCCC1)C(=O)N[C@@H](CC(C)C)C(=O)N[C@@H](C(C)C)[C@@H](O)c1c(-c2ccccc2)c1=O` [118 (No. 467), 2-[(1S, 2S)-2-{(S)-2-((S)-2-cyclohexylmethoxycarbonylamino-4-methylvalerylamino)-4-methylvalerylamino}-1-hydroxy-3-methylbutyl]-3-phenylcyclopropenone], the half-inhibitory concentration (IC50) was determined as 840 nM.
The figure for `CC(C)C[C@H](NC(=O)[C@H](Cc1ccccc1)NC(=O)OCc1ccccc1)C(=O)N[C@@H](C(C)C)[C@@H](O)c1c(-c2ccccc2)c1=O` [120 (No. 478), 2-[(1S, 2S)-2-{(S)-2-((S)-2-benzyloxycarbonylamino-3-phenylpropionylamino)-4-methylvalerylamino}-1-hydroxy-3-methylbutyl]-3-phenylcyclopropenone] is 1200 nM.
